≈ marks a conversion by molar mass, not a printed value.
Columns and labels:
[1] = tested on: C. freundii 902; experiment: Minimum inhibitory concentration in vitro, agar dilution method; type: cell-based; conditions: Citrobacter freundii; C. freundii 902, agar dilution; read-out: MIC
Description: (§1) 1. Minimum Inhibitory Concentration in vitro
(§2) The activities ascertained, minimum inhibitory concentration (MIC) in μg/ml, are compiled in Table 1 hereinafter: […]

[2] = tested on: E. aerogenes CF153; experiment: as above; type: cell-based; conditions: Klebsiella aerogenes; E. aerogenes CF153, agar dilution; read-out: MIC
Description: as §1, §2

[3] = tested on: E. cloacae 908R; experiment: as above; type: cell-based; conditions: Enterobacter cloacae; E. cloacae 908R, agar dilution; read-out: MIC
Description: as §1, §2

[4] = tested on: E. cloacae 908SSi; experiment: as above; type: cell-based; conditions: Enterobacter cloacae; E. cloacae 908SSi, agar dilution; read-out: MIC
Description: as §1, §2

[5] = tested on: E. cloacae P99; experiment: as above; type: cell-based; conditions: Enterobacter cloacae
Description: as §1, §2

[6] = tested on: E. coli 25922; experiment: as above; type: cell-based; conditions: Escherichia coli; E. coli 25922, agar dilution; read-out: MIC
Description: as §1, §2

[7] = tested on: K. oxytoca 1082; experiment: as above; type: cell-based; conditions: Klebsiella oxytoca; K. oxytoca 1082, agar dilution; read-out: MIC
Description: as §1, §2

[8] = tested on: K. pneumoniae 418; experiment: as above; type: cell-based; conditions: Klebsiella pneumoniae; K. pneumoniae 418, agar dilution; read-out: MIC
Description: as §1, §2

[9] = tested on: P. aeruginosa 27853; experiment: as above; type: cell-based; conditions: Pseudomonas aeruginosa; P. aeruginosa 27853, agar dilution; read-out: MIC
Description: as §1, §2

[10] = tested on: P. aeruginosa 799/61; experiment: as above; type: cell-based; conditions: Pseudomonas aeruginosa; P. aeruginosa 799/61, agar dilution; read-out: MIC
Description: as §1, §2

[11] = tested on: P. aeruginosa 799/WT; experiment: as above; type: cell-based; conditions: Pseudomonas aeruginosa; P. aeruginosa 799/WT, agar dilution; read-out: MIC
Description: as §1, §2

[12] = tested on: P. aeruginosa BA; experiment: as above; type: cell-based; conditions: Pseudomonas aeruginosa; P. aeruginosa BA, agar dilution; read-out: MIC
Description: as §1, §2

[13] = tested on: P. aeruginosa MK1184; experiment: as above; type: cell-based; conditions: Pseudomonas aeruginosa; P. aeruginosa MK1184, agar dilution; read-out: MIC
Description: as §1, §2

[14] = tested on: P. mirabilis 2117; experiment: as above; type: cell-based; conditions: Proteus mirabilis; P. mirabilis 2117, agar dilution; read-out: MIC
Description: as §1, §2

[15] = tested on: P. vulgaris 1028; experiment: as above; type: cell-based; conditions: Proteus vulgaris; P. vulgaris 1028, agar dilution; read-out: MIC
Description: as §1, §2

[16] = tested on: S. aureus 6538; experiment: as above; type: cell-based; conditions: Staphylococcus aureus; S. aureus 6538, agar dilution; read-out: MIC
Description: as §1, §2

[17] = tested on: S. marcescens 69438; experiment: as above; type: cell-based; conditions: Serratia marcescens; S. marcescens 69438, agar dilution; read-out: MIC
Description: as §1, §2

[18] = tested on: S. pyogenes 15; experiment: as above; type: cell-based; conditions: Streptococcus pyogenes; S. pyogenes 15, agar dilution; read-out: MIC
Description: as §1, §2

[19] = tested on: E. coli 25922; experiment: Experimental systemic septicaemia in the mouse; type: in vivo; conditions: Escherichia coli, sc, 96 h; E. coli 25922, albino mice, s.c. 1 and 3 hours after infection, survival after 4 days; read-out: ED50
Protocol: (§3) 2. Experimental systemic septicaemia in the mouse
(§4) An experimental systemic septicaemia was produced in albino mice weighing 16-20 g by intraperitoneally injecting into the experimental animals a sample of a dilute culture of the test organism which had been grown overnight. The sample administered is calculated such that the dosage administered is about 5-100 times greater than the dosage which is required to kill 50% of untreated experimental animals within 48 hours. The bacteria were injected as a suspension in the culture broth. Groups of 5 experimental animals each were used not only for the control, but also for the treatment for each dosage tested. The products in accordance with the invention were administered subcutaneously as a suspension in Tween 80 (2%), whereby the concentrations were chosen such that each experimental animal received 500 μl per administration. The respective concentrations were administered twice, namely 1 and 3 hours after the infection (in the case of P. aeruginosa three times, namely 1, 3 and 5 hours after the infection). The ED50 is that dosage which protects 50% of the experimental animals and was calculated by means of the Probit method on the basis of the survial rate after 4 days following the infection. The ED50 values in mg/kg s.c. (subcutaneous) for representatives of the class of substance in accordance with the invention are given in Table 2 hereinafter.

[20] = tested on: Pseudomonas aeruginosa BA; experiment: Experimental systemic septicaemia in the mouse; type: in vivo; conditions: sc, 96 h, P. aeruginosa BA, albino mice, s.c. 1, 3 and 5 hours after infection, survival after 4 days, read-out: ED50
Protocol: as §3, §4

Row | SMILES | MIC [1] [µg/mL] | MIC [2] [µg/mL] | MIC [3] [µg/mL] | MIC [4] [µg/mL] | MIC [5] [µg/mL] | MIC [6] [µg/mL] | MIC [7] [µg/mL] | MIC [8] [µg/mL] | MIC [9] [µg/mL] | MIC [10] [µg/mL] | MIC [11] [µg/mL] | MIC [12] [µg/mL] | MIC [13] [µg/mL] | MIC [14] [µg/mL] | MIC [15] [µg/mL] | MIC [16] [µg/mL] | MIC [17] [µg/mL] | MIC [18] [µg/mL] | ED50 [19] [mg/kg] | ED50 [20] [mg/kg]
1 | Nc1nc(/C(=N/OCc2nc(=O)c(O)c[nH]2)C(=O)N[C@@H]2C(=O)N3C(C(=O)O)=C(CSc4nc(-c5ccccc5)ncc4-c4ccc(O)c(O)c4)CS[C@H]23)cs1 [Example 16, (6R,7R)-7-[(Z)-2-(2-amino-4-thiazolyl)-2-[[(1,4-dihydro-5-hydroxy-4-oxo-2-pyrimidinyl)methoxy]imino]acetamido]-3-[[[5-(3,4-dihydroxyphenyl)-2-phenyl-4-pyrimidinyl]thio]methyl]-8-oxo-5-thia-1-azabicyclo[4.2.0]oct-2-ene-2-carboxylic acid] | 0.12 (≈ 0.15 µM) | 0.12 (≈ 0.15 µM) | 0.25 (≈ 0.312 µM) | 8 (≈ 9.98 µM) | 8 (≈ 9.98 µM) | < 0.1 | 0.25 (≈ 0.312 µM) | < 0.1 | 1 (≈ 1.25 µM) | < 0.1 | 0.5 (≈ 0.624 µM) | 4 (≈ 4.99 µM) | > 32 | 0.25 (≈ 0.312 µM) | 0.25 (≈ 0.312 µM) | 32 (≈ 39.9 µM) | 1 (≈ 1.25 µM) | 0.25 (≈ 0.312 µM) | < 0.5 | > 2
2 | CC(C)(O/N=C(\C(=O)N[C@@H]1C(=O)N2C(C(=O)O)=C(CSc3nc(-c4ccccc4)ncc3-c3ccc(O)c(O)c3)CS[C@H]12)c1csc(N)n1)C(=O)NNC(=O)c1ccc(O)c(O)c1 [Example 46, (6R,7R)-7-[(Z)-2-(2-amino-4-thiazolyl)-2-[[1-[3-(3,4-dihydroxybenzoyl)carbazoyl]-1-methylethoxy]imino]acetamido]-3-[[[5-(3,4-dihydroxyphenyl)-2-phenyl-4-pyrimidinyl]thio]methyl]-8-oxo-5-thia-1-azabicyclo[4.2.0]oct-2-ene-2-carboxylic acid] | 0.5 (≈ 0.547 µM) | 0.25 (≈ 0.274 µM) | 1 (≈ 1.09 µM) | 16 (≈ 17.5 µM) | 16 (≈ 17.5 µM) | 0.12 (≈ 0.131 µM) | 2 (≈ 2.19 µM) | 0.25 (≈ 0.274 µM) | 0.25 (≈ 0.274 µM) | < 0.1 | 0.25 (≈ 0.274 µM) | 0.5 (≈ 0.547 µM) | 2 (≈ 2.19 µM) | 0.25 (≈ 0.274 µM) | 0.5 (≈ 0.547 µM) | > 32 | 4 (≈ 4.38 µM) | 4 (≈ 4.38 µM) | < 0.5 | 
3 | Cc1cc(SCC2=C(C(=O)O)N3C(=O)[C@@H](NC(=O)/C(=N\OCc4ccc(O)c(O)c4F)c4csc(N)n4)[C@H]3SC2)n2nc(COC(=O)c3ccc(O)c(O)c3)nc2n1 [Example 9] | < 0.1 | < 0.1 | 0.12 (≈ 0.141 µM) | 4 (≈ 4.68 µM) | 8 (≈ 9.37 µM) | < 0.1 | < 0.1 | < 0.1 | < 0.1 | < 0.1 |  | < 0.1 | < 0.1 | < 0.1 | < 0.1 | 8 (≈ 9.37 µM) | < 0.1 | 1 (≈ 1.17 µM) | < 0.05 | 0.24

Source: patent publication US5438052A, “Cephalosporin derivatives” (Hoffmann-La Roche Inc., priority 1991, dated 1995)
